SMILES strings stand for the structures.

These results are taken from article PMC7067850, “Identification of highly potent and selective inhibitor, TIPTP, of the p22phox-Rubicon axis as a therapeutic agent for rheumatoid arthritis” (Scientific Reports, 2020).

One assay has as its system ROS (O2− and H2O2). Nature of the assay: Flow cytometric measurement of ROS production in BMDMs. To be noted: LPS-primed BMDMs, compound 1 h, ATP 30 min (Fig. 3d). In kind it is cell-based, mouse. Here is the method: Intracellular ROS levels were measured by flow cytometry from cells cultured in serum-free medium and loaded with the redox-sensitive dye 2 µM dihydroethidium (DHE for O2^−; Calbiochem) or 10 µM 2′,7′-Dichlorofluorescin diacetate (DCFH-DA for H2O2; Calbiochem)[18],[19]. The cells were thoroughly and quickly washed with pulse spin and immediately acquired for analyses in FACSCalibur (BD Biosciences, San Jose, CA). The data were plotted using CellQuest software (BD Biosciences).
(§1) Figure 3 TIPTP robustly suppresses LPS/ATP-mediated Rubicon-p22phox interaction and ROS-mediated inflammation. (a) Structure of the TIPTP. (b) MTT assay for cell viability. BMDMs were incubated with TIPTP for the indicated times at the indicated TIPTP concentrations (upper). WCLs were used for IB with α22phox, αRubicon, or αActin (lower). (c–f) LPS (100 ng/ml)-primed BMDMs were treated with compounds for 1 h, and then activated with ATP (1 mM) for 30 min. (c) NADPH oxidase activity. (d) FACS analysis for superoxide and hydrogen peroxide (upper). Quantitative analysis of mean fluorescence intensities of ROS (lower). (e) BMDMs were incubated with increasing concentrations of compound 1 and TIPTP (com 2) (***). IP with αRubicon, followed by IB with αp22phox, αBeclin-1, αUVRAG, αRubicon. […] (f) Culture supernatants were harvested and analyzed for cytokines by ELISA. […]
(A flow cytometer gives signals particle by particle.)

In the next assay the test system is NLRP3 inflammasome. Nature of the assay: NLRP3 inflammasome activation in LPS/ATP-treated BMDMs (immunoblot, ELISA). It is filed as cell-based, mouse. To be noted: NLRP3 inflammasome-activating stimuli (Fig. 3e, 3f). The procedure:
For immunoblotting, polypeptides were resolved by SDS-polyacrylamide gel electrophoresis and transferred to a PVDF membrane (Bio-Rad). […] Antibody binding was visualized by chemiluminescence (ECL; Millipore) and detected by a Vilber chemiluminescence analyzer (Fusion SL 3; Vilber Lourmat).
Cell culture supernatants, mice sera and synovial fluid were analyzed for cytokine content using the BD OptEIA ELISA set (BD Pharmingen) for the detection of TNF-α, IL-6, IL-1β, and IL-18. All assays were performed as recommended by the manufacturer.
as §1

Another assay relates to human monocytes. The experiment in a line: LPS-primed, ATP-activated human monocytes (co-IP, ELISA, immunoblot). It is filed as cell-based. Here is the method:
The mouse macrophage cell line RAW264.7 (ATCC TIB-71; American Type Culture Collection) and HEK293T (ATCC-11268) cells were maintained in DMEM (Invitrogen) containing 10% FBS (Invitrogen), sodium pyruvate, nonessential amino acids, penicillin G (100 IU/ml), and streptomycin (100 μg/ml). Transient transfections were performed with Lipofectamine 3000 (Invitrogen), or calcium phosphate (Clontech), according to the manufacturer’s instructions. Raw264.7 stable cell lines were generated using a standard selection protocol with 2 μg/ml of puromycin. Mouse primary bone marrow derived-macrophages (BMDMs) were isolated from C57BL/6 mice and cultured in DMEM for 3–5 days in the presence of 25 ng/ml recombinant macrophage colony stimulating factor (R&D Systems, 416-ML, Minneapolis, MN, USA), as described previously. Human adherent monocytes were prepared from PBMCs donated by healthy subjects, as described previously. […]
Cell culture supernatants, mice sera and synovial fluid were analyzed for cytokine content using the BD OptEIA ELISA set (BD Pharmingen) for the detection of TNF-α, IL-6, IL-1β, and IL-18. […]
Figure 6 TIPTP is active for cells from healthy humans or patients with RA. […] (b) Culture supernatants were harvested and analyzed for cytokines by ELISA (left). […] (e) Culture supernatants were harvested and analyzed for cytokines by ELISA (left). […]
A general note: In an ELISA, binding on a coated surface is turned into a signal by an enzyme label.

Turning to `C[C@@H](Oc1cccc(-n2cc3c(n2)CCCC3)c1)C(=O)Nc1nnc(C(F)(F)F)s1` [TIPTP, (R)-2-(3-(4,5,6,7-tetrahydro-2H-indazol-2-yl)phenoxy)-N-(5-(trifluoromethyl)-1,3,4-thiadiazol-2-yl)propanamide], in the assay on ROS (O2− and H2O2), the “ROS (O2− and H2O2) generation” value was “inhibited in a dose-dependent manner”. The “caspase-1 activation, and IL-1β and IL-18 maturation” value in the assay with NLRP3 inflammasome is “significantly decreased”. Besides, the “IL-1β and IL-18 cytokines, caspase-1 activation, IL-1β and IL-18 maturation” value in the assay on human monocytes (human blood-derived monocytes, LPS/ATP, dose-dependent (Fig. 6b)) is “inhibited”. Moreover, the “p22phox–Rubicon interaction” value with human monocytes (normal human monocytes, LPS/ATP, 0.01, 0.1, 1 μM, dose-dependent (Fig. 6a)) was “inhibited”.
